Laboratory results as given in patent US7235536B2, “Cellulose sulfate and other sulfated polysaccharides to prevent and treat papilloma virus infection and other infections” (Rush Presbyterian-St. Luke's Medical Center, priority 2000, dated 2007).

How the values were obtained:
BPV-1 [1] = test: BPV-1 focus-forming assay, cells pre-incubated with compound and washed before virus (Table D); type: cell-based, bovine papilloma virus; settings: for Average ± standard deviation (foci/well): C127-D10 cells, washed before virus
Experimental: Microbicidal activity of compounds was also tested by pre-incubation of cells with compounds followed by addition of virus to compound-coated C127 cells. In these experiments, dilutions of compounds were added to cultures of C127 cells, incubated for 1 hr at 37° C., washed 3 times with media to remove unbound compound, prior to addition of approximately 100 focus-forming units of BPV-1. The cultures were incubated for an additional hour, washed three times to remove unbound virus, then the incubation was continued for two weeks with media changes every 3-4 days and foci counted as described above.
Pre-incubation of C127-D10 cells with compounds prior to addition of BPV-1 was tested to determine whether the microbicidal effects of CS and DS extended to a blockage of virus interaction with cell surfaces. In these experiments, titrations of compounds were added to cell cultures followed by washing away unbound reagent prior to addition of virus. After a one-hour incubation with virus, unbound virus was removed by washing and the cultures monitored for foci after two weeks.

[2] = system: human papilloma virus-like particles (VLP's); settings: Joyce et al. 1999; cited from earlier work
BPV-1 [3] = test: BPV-1 focus-forming assay, virus preincubated with compound (Table C); type: cell-based, bovine papilloma virus; settings: C127 cell line
Experimental: In a similar study using the BPV-1 focus forming assay, the effect of the cellulose sulfate and dextran sulfate on BPV was tested. In this study, cellulose sulfate tested was as described above. Dextran sulfate used was from Dextran Products Limited (Lot DSM-122) prepared using dextan of average Mr of about 500,000 (based on viscosity) and is estimated to have a final average Mr greater than about 500,000 and may be about 1 to 1.1 million.
Microbicidal activity of the compounds was tested using the well-characterized BPV-1 focus-forming assay (Dvoretzky, I., R. Shober, S. K. Chattopadhyay, and D. R. Lowy. 1980. A quantitative in vitro focus assay for bovine papilloma virus. Virology 103:369-375), with modifications for microbicide testing (Hermonat, P. L., (1992) supra; Howett, M. K., et al. (1999) supra. The terms inhibiting or microbicidal activity when used are intended to refer broadly to microbe infection and/or microbe inactivating effect.
Aliquots of BPV-1 containing approximately 100-200 focus-forming units were preincubated with dilutions of compounds for 10 min at 37° C. prior to addition to cultures of mouse C127 cells. Cultures of C127 cells were set up in T25 tissue culture flasks (Corning, N.Y.), containing 3×10^5 cells per flask. Virus-compound mixtures in a total of 50 μl were then added to flasks in 1 ml of media, and an additional 3 ml of media added after 24 hrs culture. Media was changed every 3-4 days for a period of 2 weeks. Foci were enumerated following staining of the monolayer with crystal violet and counting stained foci microscopically. Each concentration of compound was tested in duplicate, and the mean±SD of foci number for the preincubation virus-drug concentration for each compound is shown below as Table C.
Clones were derived from the parental C127 cell line because of the consistent failure of BPV-1 to induce foci following several cell passages of the uncloned parental cell line. One clone, labeled C127-D10, which produced foci upon BPV-1 infection, was chosen for a repeat testing of the compounds. When this clone was tested for microbicidal activity, less compound was required to achieve high reduction in BPV-1-induced foci when compared to the uncloned parental-C127 cells.

HPV-40 = test: RT-PCR ELISA for transient infection of human A431 cells, HPV-40; type: cell-based, human papilloma virus; settings: with virus (HPV-40)
Experimental: (§1) Cellulose sulfate and dextran sulfate were each prepared as a 2 mg/ml solution in 0.9% NaCl and tested for microbicidal activity using the in vitro HPV transient infection assay originally described by Smith and colleagues (Smith, L. H., C. Foster, M. E. Hitchcock, and R. Isseroff. 1993. In vitro HPV-11 infection of human foreskin. J. Invest. Dermatol. 101:292-295) with some modifications (Ludmerer, S. W., W. L. McClements, X. M. Wang, J. C. Ling, K. U. Jansen, and N. D. Christensen. 2000. HPV11 mutant virus-like parties elicit immune responses that neutralize virus and delineate a novel neutralizing domain. Virology 266:237-245). An ELISA-based read-out of Optical Density (OD) values using alkaline phosphatase cleavage of the substrate p-nitrophenyl phosphate was also used to measure HPV infection as described below.
The RT-PCR assay to detect HPV-40 infection was designed similarly for the detection of HPV-11 infection as described above.
(§2) A modification of the RT-PCR assay that incorporates an ELISA-based read-out (Boehringer-Mannheim) was also included to assess microbicidal activity. Replicate cell cultures of A431 cells were infected with an aliquot of infectious HPV virions as described above. After 4 days of culture, cells were harvested and RNA extracted. RNA was subjected to RT using downstream anti-sense (reverse) primers for HPV-11 or HPV-40 and β-actin (as a control/housekeeping cellular transcript) to initiate cDNA synthesis. The cDNA was processed through 2 sets of 30 cycles of PCR amplification using nested primers: the second set of cycles used digoxygenin (DIG)-dUTP to label the PCR products with DIG. DIG-labeled PCR products were denatured then renatured together with a biotinylated oligonucleotide specific for the targeted PCR product. Biotinylated products were detected in ELISA with plates coated with streptavidin (to capture the biotinylated target PCR product) then anti-DIG antibody and substrate. Labeled PCR products were added directly to ELISA plates, or titrated at 10-fold dilutions in duplicate for each cell culture for each virus dilution.
The microbicidal activity was assessed either as the detection of ethidium stained PCR products or as an ELISA-based read-out as described above. […] An initial experiment was conducted to test the specificity of the ELISA-based RT-PCR assay using HPV-11 and HPV-40 infection of A431 cells (Table E).

HPV-11 = test: RT-PCR ELISA for transient infection of human A431 cells, HPV-11; type: cell-based, human papilloma virus; settings: with virus (HPV-11)
Experimental: as §1, §2

papillomaviruses = settings: literature; cited from earlier work
[4] = 100 μg/ml at viral pretreatment

| Substance | Average ± standard deviation (foci/well) (BPV-1 [1]; 10 μg/ml) | reduction of BPV-1-induced foci (BPV-1 [1]; 10 μg/ml, cells pre-treated, washed) | Average ± standard deviation (foci/well) (BPV-1 [1]; 100 μg/ml) | Average ± standard deviation (foci/well) (BPV-1 [1]; 1,000 μg/ml) | Average ± standard deviation (foci/well) (BPV-1 [1]; 10,000 μg/ml) | binding of VLP's to HaCaT cells [2] | inhibition of papilloma virus infectivity (BPV-1 [3]; 100 μg/ml) | inhibition of papilloma virus infectivity (BPV-1 [3]; 1 mg/ml) | Mean (SD) of O.D. reading for RT-PCR ELISA, HPV-40 probe (HPV-40; 10 μg/ml at viral pretreatment) | Mean (SD) of O.D. reading for RT-PCR ELISA, HPV-40 probe (HPV-40; [4]) | Mean (SD) of O.D. reading for RT-PCR ELISA, HPV-40 probe (HPV-40; 1000 μg/ml at viral pretreatment) | Mean (SD) of O.D. reading for RT-PCR ELISA, HPV-11 probe (HPV-11; 10 μg/ml at viral pretreatment) | Mean (SD) of O.D. reading for RT-PCR ELISA, HPV-11 probe (HPV-11; [4]) | microbicidal activity against papillomaviruses (papillomaviruses) |
| --- | --- | --- | --- | --- | --- | --- | --- | --- | --- | --- | --- | --- | --- | --- |
| Dextran sulfate | 31 ± 16.9 | substantial reduction in foci | 15 ± 4.6 | 4 ± 2.6 | 0 | inhibited | moderate inhibition | very high inhibition | 0.042 (0.007) O.D. | 0.375 (0.073) O.D. | 0.006 (0.007) O.D. | 0.023 (0.000) O.D. | 0.035 (0.000) O.D. | – |
| heparin [reference compound] | – | – | – | – | – | inhibited | – | – | – | – | – | – | – | – |
| nonoxynol-9 | – | – | – | – | – | – | – | – | – | – | – | – | – | ineffective |
